In publication PMC12264554, “Application of preclinical absorption, distribution, metabolism, elimination in vitro techniques for the characterization and compound library optimization of novel antibiotic gallium salophen” (Drug Metabolism and Disposition, 2025):
Read-outs that look alike come from different tables or passages of the source.

How the values were obtained:
[1] = calculated B/P, cited from earlier work
HasA = HasA (Pseudomonas aeruginosa, UniProt G3XD33); assay: Kd determination by fluorescence quenching of apo-HasAp; details: read-out: HasA Kd; apo-HasAp 1 μM, 20 mM sodium phosphate pH 7.4, 25 °C, one-site binding fit
Chain of HasA (G3XD33 entry or part of it): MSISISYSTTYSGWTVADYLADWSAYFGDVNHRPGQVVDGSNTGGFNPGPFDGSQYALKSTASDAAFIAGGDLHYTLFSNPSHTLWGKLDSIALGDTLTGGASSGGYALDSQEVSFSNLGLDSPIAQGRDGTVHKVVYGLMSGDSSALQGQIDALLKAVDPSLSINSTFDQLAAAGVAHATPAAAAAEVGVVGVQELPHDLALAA
Protocol: Wild-type, full-length HasAp was prepared from freshly transformed Escherichia coli BL21(DE3) competent cells as previously described in 4 L of M9 media. Cell pellets were resuspended and lysed with an LM-20 microfluidizer at 18,000 psi. Lysate was clarified by centrifugation and applied to a Q-Sepharose column. HasAp was eluted over a gradient from 20 to 600 mM NaCl in 20 mM Tris-HCl (pH 7.5), and desired fractions determined by SDS-PAGE were pooled. Apo-HasAp was further purified on a Butyl Sepharose Fast Flow column equilibrated with 50 mM sodium phosphate buffer with 0.7 M ammonium sulfate (pH 7.0). Holo-HasAp and other proteins eluted within 2–3 bed volumes of 50 mM sodium phosphate containing 0.5 M ammonium sulfate. Apo-HasAp was then eluted with a linear gradient of sodium phosphate buffer (50–20 mM) containing ammonium sulfate (0.5–0 M). Fractions were analyzed again by SDS-PAGE, and the apo-HasAp was pooled, concentrated (Amicon stirred cell with Ultracel 10 kDa filter), and exchanged into 20 mM sodium phosphate buffer.
Binding affinities were determined using a BioTek Synergy H1 microplate reader in a black 96-well plate. Compounds were solvated in H2O in serial dilutions (100–0.39 μM). One micromolar solution of apo-HasAp 20 mM sodium phosphate buffer (pH 7.4, 25 °C) was titrated into the ligand of interest. Emission spectra were recorded (300–500 nm) after excitation at 280 nm. The decrease in maximum emission was plotted against the ligand concentration (accounting for dilution) and fit to one-site binding using GraphPad Prism v10.

[2] = Experimental LogP by reverse-phase HPLC method; format: physicochemical; details: extrapolated log kw
Description: LogP was experimentally determined using previously published reverse-phase high-performance liquid chromatography method, and this workflow was adapted using instrumentation described in the previous LC-MS/MS analysis section ([Coutinho et al, 2023]). Briefly, analogs were eluted using isocratic flow with an increasing percentage of organic solvent from 55% to 90% in increments of 5%. The change in the log of the retention factor, log k, was plotted against the fraction of organic solvent. This allowed for extrapolation to the y-intercept, which is when the fraction of organic in the system is zero, or log kw. The same workflow was applied to known compounds with a published logP value to establish a relationship between logP and log kw. This ratio was used to calculate the experimental logP from the log kw of the test compounds. The in silico prediction of logP values was obtained using an online calculator by Molinspiration Cheminformatics (molinspiration.com).

[3] = Caco-2 permeability screening; format: in vitro ADME; details: for Papp A→B / Papp B→A / efflux ratio at 20 µM: Caco-2, 20 μM; for Papp A→B / Papp B→A: 30 and 60 min, average ± SEM; for Papp A→B: read-out: Papp apical to basolateral; for Papp B→A: read-out: Papp basolateral to apical; for Papp: Caco-2, ranked by Papp against control drugs, read-out: Permeability ranking; for efflux ratio at 20 µM: human, read-out: Efflux ratio B to A/A to B
Protocol: (§1) Caco-2 cells were received from American Type Culture Collection and certified mycoplasma free. Cells were seeded on transwell plates (CoStar, growth area 0.33 cm^2/well, polycarbonate membrane, 0.33 μm pore size) between passage 20 and 27 and then analyzed between 21 and 25 days after wells were seeded to ensure enterocyte-like differentiation. Before assessing permeability, cells were washed once with Hank’s Balanced Salt Solution buffer, pH 7.4, and then incubated at 37 °C for 30 minutes. Transepithelial electrical resistance (TEER) was measured after equilibration before the experiment using an epithelial volt-ohmmeter (EVOM, World Precision Instruments), and cells were used if TEER > 250 Ω × cm^2. Cells were dosed to measure permeability from basolateral and apical sides at a concentration of 20 μM of test compound and 50 μM of Lucifer yellow. Lucifer yellow was used as a “zero permeability” marker to monitor the integrity of cell barrier. Samples were taken at 0 and 60 minutes from the donor side, and samples were taken at 30 and 60 minutes from the receiver side; media was replenished after the 30-minute sample was taken from both chambers. A calibration curve was prepared by serial dilution using the dosing solution in a 1:5 dilution. […] Samples were prepared for LC-MS/MS analysis by taking 100 μL of sample, adding 1 μM internal standard (GaSal-4 or GaSal-5), and crashing with 400 μL of methanol. Samples were centrifuged at 3000 rpm at 4 °C for 30 minutes, 200 μL of supernatant was transferred to a new plate, and 100 μL of water was added to each sample. Samples were vortexed and analyzed by LC-MS/MS as described earlier. […] To preliminarily evaluate organic cation transporter 1 (OCT1) or P-glycoprotein (P-gp)-dependent transport, transport studies were conducted with and without a 1 μM “inhibitor cocktail” alongside GaSal. […] The Papp for basolateral to apical, Papp apical to basolateral, and efflux ratio were reported for each compound. In order to calculate Papp, the concentration in the sampled time point was determined from the calibration curve and then converted to μg based on the volume of the chamber (0.2 mL for apical, 1.0 mL for basolateral). […] The calculation of Papp was determined using eq. […] Data are presented as the average ± SEM for each compound analyzed as n = 3 on 2 different days with 2 different cell line passages, for n = 6 total. GaSal is n = 3 on 3 different cell line passages since this was used as a test compound for the inhibition cocktail experiments.

[4] = RBC/PL partitioning equilibrium in whole blood; details: 2 hours, LC-MS/MS (ICP-MS for Ga^3+); for K2EDTA KRBC/PL: pooled K2EDTA whole blood; for Heparin KRBC/PL: pooled sodium heparin whole blood
Protocol: The mixtures were digested at 80 °C for 4 hours and further diluted to a concentration of 6% nitric acid. Gallium (Ga^71) in whole blood, PL, and RBC samples were quantified using an Agilent 7700x ICP-MS instrument (Agilent Technologies). Metal levels were detected using an Octopole Reaction System in He mode. Other ICP-MS parameters include an radio frequency power of 1500 W, on octupole radio frequency of 190 V, an octapole bias of –18 V, a helium gas flow of 4.3 mL/min, and an argon flow of 0.99 L/min. Samples were loaded through a 7700X peristaltic (with a speed of 0.1 rps) and a MicroMist nebulizer. A standard calibration curve was used to derive metal concentrations. The calibration standards from 0–250 ppb were prepared in 6% nitric acid using atomic absorption standards (Sigma). Data analysis and extraction were performed using Agilent’s MassHunter software version 5.1, specifically version D.01.01.
All LC-MS/MS grade solvents were purchased from ThermoFisher. Ammonium bicarbonate was purchased from Sigma Aldrich. Analysis was performed on a Waters I-Class ultra-performance liquid chromatography system connected with a Waters Xevo TQ-XS mass spectrometer. Ten millimolar ammonium bicarbonate, pH 9.4 was used for mobile phase A, and 100% methanol was used for mobile phase B. The column flow rate was set at 0.400 mL/min. Chromatographic separation was performed with a BEH C18 (2.1 × 50 mm, 1.7 μm) column (Waters). […] The total run time was 4 minutes. The column temperature was set to 60 °C, and the autosampler temperature was set to 15 °C. Washing parameters were 800 μL of weak needle wash (acetonitrile [ACN]:Water/50:50) and 1000 μL of strong needle wash (methanol:ACN:2-propanol:formic acid/30:30:40:0.5) after every injection. Transitions used to monitor all drugs in the study are shown in Supplemental Table 1.
Whole blood (either potassium EDTA [K2EDTA] or sodium heparin) was preincubated at 37 °C for 30 minutes before spiking with the analyte. GaSal-5 was made at a stock concentration of 100 μg/mL in water and then spiked at a high concentration (1 μg/mL) and low concentration (100 ng/mL) to determine whether equilibrium was concentration dependent. Samples were then aliquoted and stored in a water bath at 37 °C for 1, 2, 3, 4, and 8 hours or harvested immediately. PL was harvested from samples by centrifuging at 3000 rpm at 4 °C for 10 minutes. PL was transferred to a new tube and considered the PL fraction, whereas the rest of the matrix was considered the RBC fraction. Samples were then either analyzed by LC-MS/MS or ICP-MS. […] For selectivity lot analysis, whole blood from 3 male and 3 female donors were incubated for 2 hours and then analyzed with LC-MS/MS and ICP-MS at a single concentration of 1 μg/mL. Data are presented as average ± SEM, n = 3 per sample, per concentration. Significance was determined by using a paired t test for ICP-MS and LC-MS/MS data (the same sample, different method) or a 2-tailed Student’s t test for different anticoagulants.

Caco-2 cells = assay: Caco-2 permeability screening; format: in vitro ADME; details: 20 μM, 30 and 60 min, average ± SEM
Protocol: as §1

[Cr] [Chromium]
KRBC/PL (B/P ratio) ([1]; ref (Bonde & Christensen, 1991)): 1-3

C[N+](C)(C)CCOc1ccc(/C=N/c2ccccc2/N=C/c2ccc(OCC[N+](C)(C)C)cc2O)c(O)c1.[Ga+3] [GaSal-1]
Kd (HasA): 2.5 ± 1.2 µM

CC(=Nc1ccccc1N=Cc1ccc(OCCC(=O)O)cc1O)c1ccccc1O.[Ga+3] [GaSal-9]
Kd (HasA): 0.33 ± 0.04 µM
logP [2]: 3.03
Papp A→B [3]: < 0.01 ×10⁻⁶ cm/s
Papp B→A [3]: 22.5 ± 5.63 ×10⁻⁶ cm/s
Papp [3]: < 1.12 ×10⁻⁶ cm/s
efflux ratio at 20 µM [3]: > 22.5
K2EDTA KRBC/PL ([4]; 0.1 μg/mL): 820 ± 59
K2EDTA KRBC/PL ([4]; 1 μg/mL): 13745 ± 3800

[As] [Arsenic]
KRBC/PL (B/P ratio) ([1]; ref (Cao et al., 2023)): 1.46

COCCOCCOc1ccc(/C=N/c2ccccc2N=C(C)c2ccccc2O)c(O)c1.[Ga+3] [GaSal-10]
Kd (HasA): 3.4 ± 0.3 µM

CC(=Nc1ccccc1N=Cc1ccc(OCCN(C)C)cc1O)c1ccccc1O.[Ga+3] [GaSal-7]
Kd (HasA): 5 ± 0.9 µM
logP [2]: 3.27
Papp apical to basolateral (Caco-2 cells): Undetected
Papp basolateral to apical (Caco-2 cells): Undetected

[Mn+2] [Manganese]
KRBC/PL (B/P ratio) ([1]; ref (Smith et al., 2007)): 0.2

CC(=Nc1ccccc1N=Cc1ccc(OCCN2CCOCC2)cc1O)c1ccccc1O.[Ga+3] [GaSal-8]
Kd (HasA): 5.2 ± 0.4 µM
logP [2]: 4.11
Papp A→B [3]: < 0.01 ×10⁻⁶ cm/s
Papp B→A [3]: 5.75 ± 0.37 ×10⁻⁶ cm/s
Papp [3]: < 1.12 ×10⁻⁶ cm/s
efflux ratio at 20 µM [3]: > 5.75
K2EDTA KRBC/PL ([4]; 0.1 μg/mL): 0.12 ± 0.09
Heparin KRBC/PL ([4]; 0.1 μg/mL): 33.8 ± 5.7
K2EDTA KRBC/PL ([4]; 1 μg/mL): 0.10 ± 0.05
Heparin KRBC/PL ([4]; 1 μg/mL): 37.4 ± 2.6

CN(C)CCOc1ccc(C=Nc2ccccc2N=Cc2ccc(OCCN(C)C)cc2O)c(O)c1.[Ga+3] [GaSal-2]
Kd (HasA): 1.2 ± 0.3 µM
logP [2]: 3.7
Papp apical to basolateral (Caco-2 cells): Undetected
Papp basolateral to apical (Caco-2 cells): Undetected

C/C(=N\c1ccccc1/N=C/c1ccc(OCC[N+](C)(C)C)cc1O)c1ccccc1O.[Ga+3] [GaSal-6]
Kd (HasA): 4 ± 2.8 µM
